Biological target: T1, Trx-6×His-BCL6 (human BCL6 BTB domain covering amino-acid sequence 5-129) (Homo sapiens, UniProt P41182)
T1 construct: made in house
Assay: HTRF assay (BCL6 / BCOR peptide)
Assay type: binding
Conditions: 1 nM Trx-6×His-BCL6, 300 nM BCOR-AF633 peptide, 2 hours incubation at room temperature; read-out: HTRF avg pIC50 (converted)
Procedure: After 2 hours incubation at room temperature the plate was read on a Pherastar FSX (BMG Labtech) plate reader equipped with 337 nm laser excitation filter, a first emission filter at 620 nm and a second emission filter at 665 nm. The % inhibition at each concentration was calculated by normalising FRET ratio to the appropriate high (DMSO with all reagents) and low (DMSO without BCL6) controls.

| SMILES | IC50 |
| --- | --- |
| CC1CCN1c1ncc(Cl)c(Nc2ccc3c(c2)c2c(c(=O)n3C)OCC(F)(F)[C@H](C3CC3)N2)n1 (mixture of isomers) [Example 12x36, (2S)-10-((5-chloro-2-(2-methylazetidin-1-yl)pyrimidin-4-yl)amino)-2-cyclopropyl-3,3-difluoro-7-methyl-1,2,3,4-tetrahydro-[1,4]oxazepino[2,3-c]quinolin-6(7H)-one] | 7.76 nM |
| Cn1c(=O)c2c(c3cc(Nc4nc(N5CCC(F)(F)CC5)ncc4F)ccc31)N[C@@H](C1CC1)C(F)(F)CO2 [Example 2b, (S)-2-cyclopropyl-10-((2-(4,4-difluoropiperidin-1-yl)-5-fluoropyrimidin-4-yl)amino)-3,3-difluoro-7-methyl-1,2,3,4-tetrahydro-[1,4]oxazepino[2,3-c]quinolin-6(7H)-one] | 22.4 nM |
| C[C@H]1CCCN(c2ncc(Cl)c(Nc3ccc4c(c3)c3c(c(=O)n4C)OCC(F)(F)[C@H](C4CC4)N3)n2)C1 [Example 1k, (S)-10-((5-chloro-2-((S)-3-methylpiperidin-1-yl)pyrimidin-4-yl)amino)-2-cyclopropyl-3,3-difluoro-7-methyl-1,2,3,4-tetrahydro-[1,4]oxazepino[2,3-c]quinolin-6(7H)-one] | 38 nM |
| CC1CC(CC(=O)N2CC(F)(F)C2)CN(c2ncc(Cl)c(Nc3ccc4c(c3)c3c(c(=O)n4C)OCC(F)(F)[C@H](C4CC4)N3)n2)C1 (single isomer, unassigned) [Example 12x17b] | 13.2 nM |
| Cn1c(=O)c2c(c3cc(Nc4nc(N5CCCC(C#N)C5)ncc4Cl)ccc31)N[C@@H](C1CC1)C(F)(F)CO2 (stereo partly drawn) [Example 12x23, 1-(5-chloro-4-(((S)-2-cyclopropyl-3,3-difluoro-7-methyl-6-oxo-1,2,3,4,6,7-hexahydro-[1,4]oxazepino[2,3-c]quinolin-10-yl)amino)pyrimidin-2-yl)piperidine-3-carbonitrile] | 5.13 nM |
| CC1CC(CC(=O)N2CCC2)CN(c2ncc(Cl)c(Nc3ccc4c(c3)c3c(c(=O)n4C)OCC(F)(F)[C@H](C4CC4)N3)n2)C1 (single isomer, unassigned) [Example 12x16a] | 2.04 nM |
| CC1CC(CC(=O)N2CC(F)(F)C2)CN(c2ncc(Cl)c(Nc3ccc4c(c3)c3c(c(=O)n4C)OCC(F)(F)[C@H](C4CC4)N3)n2)C1 (single isomer, unassigned) [Example 12x17a] | 3.98 nM |
| Cn1c(=O)c2c(c3cc(Nc4nc(N5CC(CO)C5)ncc4Cl)ccc31)N[C@@H](C1CC1)C(F)(F)CO2 [Example 12x32, (S)-10-((5-chloro-2-(3-(hydroxymethyl)azetidin-1-yl)pyrimidin-4-yl)amino)-2-cyclopropyl-3,3-difluoro-7-methyl-1,2,3,4-tetrahydro-[1,4]oxazepino[2,3-c]quinolin-6(7H)-one] | 3.72 nM |
| CC1CCCN(c2ncc(Cl)c(Nc3ccc4c(c3)c3c(c(=O)n4C)OCC(F)(F)[C@H](C4CC4)N3)n2)C1C (stereo partly drawn) [Example 12x08, (2S)-10-((5-chloro-2-(2,3-dimethylpiperidin-1-yl)pyrimidin-4-yl)amino)-2-cyclopropyl-3,3-difluoro-7-methyl-1,2,3,4-tetrahydro-[1,4]oxazepino[2,3-c]quinolin-6(7H)-one] | 58.9 nM |
| COC[C@H]1CCCN1c1ncc(Cl)c(Nc2ccc3c(c2)c2c(c(=O)n3C)OCC(F)(F)[C@H](C3CC3)N2)n1 [Example 12x45b, (S)-10-((5-chloro-2-((R)-2-(methoxymethyl)pyrrolidin-1-yl)pyrimidin-4-yl)amino)-2-cyclopropyl-3,3-difluoro-7-methyl-1,2,3,4-tetrahydro-[1,4]oxazepino[2,3-c]quinolin-6(7H)-one] | 4.79 nM |
| Cn1c(=O)c2c(c3cc(Nc4cc(N5CCC(F)(F)CC5)ncc4F)ccc31)N[C@@H](C1CC1)C(F)(F)CO2 [Example 13f04, (S)-2-cyclopropyl-10-((2-(4,4-difluoropiperidin-1-yl)-5-fluoropyridin-4-yl)amino)-3,3-difluoro-7-methyl-1,2,3,4-tetrahydro-[1,4]oxazepino[2,3-c]quinolin-6(7H)-one] | 58.9 nM |
| C[C@@H]1C[C@@H](O)CN(c2ncc(Cl)c(Nc3ccc4c(c3)c3c(c(=O)n4C)OCC(F)(F)[C@H](C4CC4)N3)n2)C1 [Example 9zb, (S)-10-((5-chloro-2-((3R,5R)-3-hydroxy-5-methylpiperidin-1-yl)pyrimidin-4-yl)amino)-2-cyclopropyl-3,3-difluoro-7-methyl-1,2,3,4-tetrahydro-[1,4]oxazepino[2,3-c]quinolin-6(7H)-one] | 9.77 nM |
| CC1CN(c2ncc(Cl)c(Nc3ccc4c(c3)c3c(c(=O)n4C)OCC(F)(F)[C@H](C4CC4)N3)n2)CC(C)[S+]1[O-] (stereo partly drawn) [Example 12x09, (2S)-10-((5-chloro-2-(2,6-dimethyl-1-oxidothiomorpholino)pyrimidin-4-yl)amino)-2-cyclopropyl-3,3-difluoro-7-methyl-1,2,3,4-tetrahydro-[1,4]oxazepino[2,3-c]quinolin-6(7H)-one] | 1.7 nM |
| CC1CN(c2ncc(Cl)c(Nc3ccc4c(c3)c3c(c(=O)n4C)OCC(F)(F)[C@H](C4CC4)N3)n2)CC(C)S1 (stereo partly drawn) [Example 12x06, (2S)-10-((5-chloro-2-(2,6-dimethylthiomorpholino)pyrimidin-4-yl)amino)-2-cyclopropyl-3,3-difluoro-7-methyl-1,2,3,4-tetrahydro-[1,4]oxazepino[2,3-c]quinolin-6(7H)-one] | 30.2 nM |

Results, then the molecule that gave them:

| IC50 | SMILES |
| --- | --- |
| 2.75 nM | Cn1c(=O)c2c(c3cc(Nc4nc(N5CC6CCC(C5)N6CC5CC5)ncc4Cl)ccc31)N[C@@H](C1CC1)C(F)(F)CO2 [Example 9y, (2S)-10-((5-chloro-2-(8-(cyclopropylmethyl)-3,8-diazabicyclo[3.2.1]octan-3-yl)pyrimidin-4-yl)amino)-2-cyclopropyl-3,3-difluoro-7-methyl-1,2,3,4-tetrahydro-[1,4]oxazepino[2,3-c]quinolin-6(7H)-one] |
| 2.51 nM | CC(=O)N(C)[C@@H]1CN(c2ncc(Cl)c(Nc3ccc4c(c3)c3c(c(=O)n4C)OCC(F)(F)[C@H](C4CC4)N3)n2)CCC1(F)F [Example 9m, N-((R)-1-(5-chloro-4-(((S)-2-cyclopropyl-3,3-difluoro-7-methyl-6-oxo-1,2,3,4,6,7-hexahydro-[1,4]oxazepino[2,3-c]quinolin-10-yl)amino)pyrimidin-2-yl)-4,4-difluoropiperidin-3-yl)-N-methylacetamide] |
| 2.63 nM | C[C@@H]1CN(C)CCN(c2ncc(Cl)c(Nc3ccc4c(c3)c3c(c(=O)n4C)OCC(F)(F)[C@H](C4CC4)N3)n2)C1 [Example 12g, (S)-10-((5-chloro-2-((R)-4,6-dimethyl-1,4-diazepan-1-yl)pyrimidin-4-yl)amino)-2-cyclopropyl-3,3-difluoro-7-methyl-1,2,3,4-tetrahydro-[1,4]oxazepino[2,3-c]quinolin-6(7H)-one:(S)-10-((5-chloro-2-((S)-4,6-dimethyl-1,4-diazepan-1-yl)pyrimidin-4-yl)amino)-2-cyclopropyl-3,3-difluoro-7-methyl-1,2,3,4-tetrahydro-[1,4]oxazepino[2,3-c]quinolin-6(7H)-one (1:1)] |
| 5.01 nM | COC1CCCN(c2ncc(Cl)c(Nc3ccc4c(c3)c3c(c(=O)n4C)OCC(F)(F)[C@H](C4CC4)N3)n2)C1 (mixture of isomers) [Example 10c, (S)-10-((5-chloro-2-((R)-3-methoxypiperidin-1-yl)pyrimidin-4-yl)amino)-2-cyclopropyl-3,3-difluoro-7-methyl-1,2,3,4-tetrahydro-[1,4]oxazepino[2,3-c]quinolin-6(7H)-one; (S)-10-((5-chloro-2-((S)-3-methoxypiperidin-1-yl)pyrimidin-4-yl)amino)-2-cyclopropyl-3,3-difluoro-7-methyl-1,2,3,4-tetrahydro-[1,4]oxazepino[2,3-c]quinolin-6(7H)-one] |
| 4.17 nM | C[C@H]1C[C@@H](CO)CN(c2ncc(Cl)c(Nc3ccc4c(c3)c3c(c(=O)n4C)OCC(F)(F)[C@H](C4CC4)N3)n2)C1 (racemic) [Example 9d, (S)-10-((5-chloro-2-((3R,5S)-3-(hydroxymethyl)-5-methylpiperidin-1-yl)pyrimidin-4-yl)amino)-2-cyclopropyl-3,3-difluoro-7-methyl-1,2,3,4-tetrahydro-[1,4]oxazepino[2,3-c]quinolin-6(7H)-one; (S)-10-((5-chloro-2-((3S,5R)-3-(hydroxymethyl)-5-methylpiperidin-1-yl)pyrimidin-4-yl)amino)-2-cyclopropyl-3,3-difluoro-7-methyl-1,2,3,4-tetrahydro-[1,4]oxazepino[2,3-c]quinolin-6(7H)-one] |
| 2.63 nM | Cn1c(=O)c2c(c3cc(Nc4nc(N5CC(O)CC6(CCC6)C5)ncc4Cl)ccc31)N[C@@H](C1CC1)C(F)(F)CO2 (mixture of isomers) [Example 12j, (S)-10-((5-chloro-2-((R)-8-hydroxy-6-azaspiro[3.5]nonan-6-yl)pyrimidin-4-yl)amino)-2-cyclopropyl-3,3-difluoro-7-methyl-1,2,3,4-tetrahydro-[1,4]oxazepino[2,3-c]quinolin-6(7H)-one:(S)-10-((5-chloro-2-((S)-8-hydroxy-6-azaspiro[3.5]nonan-6-yl)pyrimidin-4-yl)amino)-2-cyclopropyl-3,3-difluoro-7-methyl-1,2,3,4-tetrahydro-[1,4]oxazepino[2,3-c]quinolin-6(7H)-one (1:1)] |
| 4.27 nM | CCN(CC1CN(c2ncc(Cl)c(Nc3ccc4c(c3)c3c(c(=O)n4C)OCC(F)(F)[C@H](C4CC4)N3)n2)CCC1(F)F)C(C)=O (mixture of isomers) [Example 9k] |

— patent publication US12528826B2, “[1,4]oxazepino[2,3-c]quinolinone derivatives as BCL6 inhibitors” (Cancer Research Technology Limited, priority 2019, dated 2026)
